Several values for one entry are separate records, joined by “and”; a condition that tells them apart may be missing. Equal values may be shown once.
Columns and labels:
[1] = test system: wt-REC-1 mantle cell lymphoma cells; assay: Cell proliferation assay wt-REC-1 (ATPlite, 72 hours); type: cell-based; conditions: 72 h; read-out: IC50 wt-REC-1
Summary of the method: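 Luminescent viability read over 72 h, start-of-incubation signal recorded separately to separate growth from cell death. Percentage growth referenced to compound-free 0.3% DMSO wells; IC50 from 4-parameter logistic fit.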

[2] = biological target: BTK T474I (Homo sapiens (Human), UniProt Q06187, T474I); assay: Binding kinetics measurements (Surface Plasmon Resonance) on BTK T474I; conditions: binding affinity by Surface Plasmon Resonance (SPR)
Summary of the method: (§1)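 SPR, single cycle kinetics: 5 injections, 3.16-316 nM, 30 μl/min (avoids mass transport limitation), 22° C, 1% DMSO buffer. Protein immobilized at 4° C on streptavidin chip, biocytin block. Blank run first; reference channel and buffer curves subtracted.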

[3] = biological target: full-length wt-BTK enzyme (Homo sapiens (Human), UniProt Q06187); assay: Biochemical kinase assay wt-BTK (IMAP)
Summary of the method: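 IMAP fluorescence polarization assay: 1.2 nM enzyme pre-incubated 1 h with compound at room temperature, then 50 nM fluorescein-labeled MBP-derived peptide and 4 μM ATP added. Reaction ran 2 h at room temperature in the dark before quenching with IMAP binding solution.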

[4] = biological target: BTK C481S (Homo sapiens (Human), UniProt Q06187, C481S); assay: Binding kinetics measurements (Surface Plasmon Resonance) on BTK C481S; conditions: for Kd: binding affinity by Surface Plasmon Resonance (SPR); for Tau (h) BTK C418S (Act): target residence time for BTK C481S, SPR
Summary of the method: as §1

[5] = biological target: BTK T474S (Homo sapiens (Human), UniProt Q06187, T474S); assay: Binding kinetics measurements (Surface Plasmon Resonance) on BTK T474S; conditions: for residence time: SPR binding kinetics, BTK T474S, read-out: Tau (h) BTK T474S (Act), target residence time (converted); for Kd: binding affinity by Surface Plasmon Resonance (SPR)
Summary of the method: as §1

[6] = biological target: full-length BTK C481S enzyme (Homo sapiens (Human), UniProt Q06187, C481S); assay: Biochemical kinase assay BTK C481S (IMAP)
Summary of the method: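 Full-length BTK C481S (1.2 nM) was pre-incubated with compound for 1 h at room temperature in the dark, then reacted with fluorescein-labelled MBP-derived peptide (50 nM) and ATP (7 μM) for 2 h. Reactions were quenched with IMAP binding solution, and IC50 values were derived from fluorescence polarization.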

[7] = test system: wt-TMD8 diffuse large B-cell lymphoma cells; assay: Cell proliferation assay wt-TMD8 (ATPlite, 120 hours); type: cell-based; conditions: B-cell; wt-TMD8 cells, 120 hours, ATPlite; read-out: IC50 wt-TMD8
Summary of the method: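 wt-TMD8 DLBCL cells, 1600 per well in RPMI-1640 with 10% FBS, rested ≥5 h then exposed to compound for 120 h at 37° C, 5% CO2. Viability read by ATPlite luminescence; percentage growth calculated relative to start-of-incubation signal and untreated 0.3% DMSO maximum growth.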

[8] = biological target: BTK T316A (Homo sapiens (Human), UniProt Q06187, T316A); assay: Binding kinetics measurements (Surface Plasmon Resonance) on BTK T316A; conditions: for Kd: binding affinity by Surface Plasmon Resonance (SPR); for Tau (h) BTK T316A (Act): target residence time, SPR
Summary of the method: as §1

[9] = test system: REC-1 T474I cell lines; assay: Cell proliferation assay REC-1 BTK T474I knock-in cells (ATPlite, 72 hours); type: cell-based; conditions: Homo sapiens, Rec1; 72 hours; read-out: IC50 REC-1 T474I
Summary of the method: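 REC-1 cells carrying CRISPR knock-in mutant BTK, single-cell cloned and sequence-confirmed, were exposed to compound for 72 h and read by ATPlite luminescence. Percentage growth was calculated against the signal at the start of incubation and against untreated 0.3% DMSO wells as maximum growth.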

[10] = biological target: wt-BTK (Homo sapiens (Human), UniProt Q06187); assay: Binding kinetics measurements (Surface Plasmon Resonance) on wt-BTK; conditions: for Kd: binding affinity by Surface Plasmon Resonance (SPR); for Tau (h) wt-BTK (Act): target residence time, SPR
Summary of the method: as §1

Sequence of BTK T474I (Q06187 whole entry T474I): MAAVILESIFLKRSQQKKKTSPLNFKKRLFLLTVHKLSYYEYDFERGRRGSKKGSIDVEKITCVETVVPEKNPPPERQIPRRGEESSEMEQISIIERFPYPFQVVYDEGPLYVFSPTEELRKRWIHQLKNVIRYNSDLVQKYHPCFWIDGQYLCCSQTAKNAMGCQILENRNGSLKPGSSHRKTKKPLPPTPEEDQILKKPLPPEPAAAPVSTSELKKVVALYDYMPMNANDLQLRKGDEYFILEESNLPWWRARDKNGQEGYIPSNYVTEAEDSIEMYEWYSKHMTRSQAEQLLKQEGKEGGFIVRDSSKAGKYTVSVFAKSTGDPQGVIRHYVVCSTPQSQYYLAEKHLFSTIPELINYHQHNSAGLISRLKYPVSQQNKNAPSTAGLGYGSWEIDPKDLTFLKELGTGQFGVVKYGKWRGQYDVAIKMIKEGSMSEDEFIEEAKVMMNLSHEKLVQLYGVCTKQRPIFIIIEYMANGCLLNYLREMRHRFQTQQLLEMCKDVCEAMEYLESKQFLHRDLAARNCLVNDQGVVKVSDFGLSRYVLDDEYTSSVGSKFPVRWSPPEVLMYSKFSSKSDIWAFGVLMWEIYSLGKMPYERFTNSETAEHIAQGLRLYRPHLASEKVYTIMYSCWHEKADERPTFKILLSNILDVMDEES
Sequence of BTK T474S (Q06187 whole entry T474S): as the sequence (Q06187 whole entry T474I) above, with I474S counted along it
Sequence of full-length wt-BTK enzyme (Q06187 whole entry): as the sequence (Q06187 whole entry T474I) above, with I474T counted along it
Sequence of wt-BTK (Q06187 whole entry): as the sequence (Q06187 whole entry T474I) above, with I474T counted along it
Sequence of BTK C481S (Q06187 whole entry C481S): as the sequence (Q06187 whole entry T474I) above, with I474T, C481S counted along it
Sequence of full-length BTK C481S enzyme (Q06187 whole entry C481S): as the sequence (Q06187 whole entry T474I) above, with I474T, C481S counted along it
Sequence of BTK T316A (Q06187 whole entry T316A): as the sequence (Q06187 whole entry T474I) above, with T316A, I474T counted along it

SMILES | IC50 [1] | Kd [2] | IC50 [3] | Kd [4] | Tau (h) BTK C418S (Act) [4] | residence time [5] | Kd [5] | IC50 [6] | IC50 [7] | Kd [8] | Tau (h) BTK T316A (Act) [8] | IC50 [9] | Kd [10] | Tau (h) wt-BTK (Act) [10]
Nc1ncc2c3c1c(-c1ccc(C(=O)Nc4cc(C(F)(F)F)ccn4)cc1)nn3[C@@H]1CCC[C@H](C1)NC(=O)COC/C=C/2 [Example 49] | < 100 nM | < 2 nM | < 5 nM | < 5 nM | 4.75 h | 4.63 h | < 3 nM | < 5 nM | < 100 nM | < 5 nM | 2.20 h | 100 to 500 nM | < 5 nM | 3.20 h
COc1ccc(F)cc1C(=O)NCc1ccc(-c2nn3c4c(cnc(N)c24)/C=C/CCCC(=O)N[C@@H]2CCC[C@@H]3C2)cc1 [Example 50] | 100 to 1000 nM | 10 to 50 nM and < 5 nM | < 5 nM | < 5 nM |  |  | < 3 nM | < 5 nM | < 100 nM | < 5 nM |  | 500 to 10000 nM | < 5 nM | 
COc1ccc(F)cc1C(=O)NCc1ccc(-c2nn3c4c(cnc(N)c24)/C=C/CCCCC(=O)N[C@@H]2CCC[C@@H]3C2)cc1 [Example 51] | 100 to 1000 nM | 10 to 50 nM and < 5 nM | < 5 nM | < 5 nM | 1.92 h | 2.09 h | < 3 nM | < 5 nM | < 100 nM | < 5 nM |  | 100 to 500 nM | < 5 nM | 1.82 h
COc1ccc(F)cc1C(=O)NCc1ccc(-c2nn3c4c(cnc(N)c24)/C=C/CO[C@H](C)C(=O)N[C@@H]2CCC[C@@H]3C2)cc1 [Example 53] | < 100 nM | 10 to 50 nM and < 5 nM | < 5 nM | < 5 nM | 1.57 h | 1.26 h | < 3 nM | < 5 nM | < 100 nM | < 5 nM |  | 100 to 500 nM | < 5 nM | 0.89 h
C[C@@H]1CCn2nc(-c3ccc(C(=O)Nc4cc(C(F)(F)F)ccn4)cc3)c3c(N)ncc(c32)/C=C/COCC(=O)N1 [Example 56] | < 100 nM | 10 to 50 nM and < 5 nM | < 5 nM | < 5 nM | 2.74 h | 2.62 h | < 3 nM | < 5 nM | < 100 nM | < 5 nM | 1.46 h | 500 to 10000 nM | < 5 nM | 2.24 h
C[C@@H]1CCn2nc(-c3ccc(C(=O)Nc4cc(C(F)(F)F)ccn4)cc3)c3c(N)ncc(c32)/C=C/CO[C@H](C)C(=O)N1 [Example 57] | < 100 nM | < 2 nM | < 5 nM | < 5 nM | 7.92 h | 1.96 h | < 3 nM | < 5 nM | < 100 nM | < 5 nM | 2.06 h | 500 to 10000 nM | < 5 nM | 2.14 h
C[C@@H]1CCn2nc(-c3ccc(C(=O)Nc4cc(C(F)(F)F)ccn4)cc3)c3c(N)ncc(c32)/C=C/CCOCC(=O)N1 [Example 59] | < 100 nM | 10 to 50 nM and < 5 nM | < 5 nM | < 5 nM | 2.05 h |  | < 3 nM | < 5 nM | < 100 nM | < 5 nM | 1.04 h | 500 to 10000 nM | < 5 nM | 1.10 h
